Test results reported in PMC10779248, “Investigation of the Potential of Selected Food-Derived Antioxidants to Bind and Stabilise the Bioactive Blue Protein C-Phycocyanin from Cyanobacteria Spirulina” (International Journal of Molecular Sciences, 2023).

Experiments:
Type in all cases: binding
Conditions in all cases: read-out: Ka (M^-1) (converted)
[1] = molecular target: T1, C-phycocyanin (C-PC) (Limnospira platensis, UniProt P72508+P72509); test: fluorescence quenching titration (PCB emission, excitation […] nm); also UV-VIS and near-UV CD; no change in Tm; parameters: gene cpcB; native C-PC purified from Spirulina biomass, (αβ)3 trimer / (αβ)6 hexamer; with C-phycocyanin alpha subunit (cpcA)
Target sequence in this assay (P72508 whole entry): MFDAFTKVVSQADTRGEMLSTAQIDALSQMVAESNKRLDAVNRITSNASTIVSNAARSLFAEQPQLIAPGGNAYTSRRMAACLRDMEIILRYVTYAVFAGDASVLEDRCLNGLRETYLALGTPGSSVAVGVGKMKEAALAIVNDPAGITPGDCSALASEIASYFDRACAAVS
Target sequence in this assay (P72509 whole entry): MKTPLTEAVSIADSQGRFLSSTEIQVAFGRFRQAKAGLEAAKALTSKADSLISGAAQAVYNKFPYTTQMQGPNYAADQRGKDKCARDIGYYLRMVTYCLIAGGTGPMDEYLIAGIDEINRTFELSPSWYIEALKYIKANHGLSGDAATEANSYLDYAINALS

[2] = molecular target: T1, C-phycocyanin (C-PC); test: fluorescence quenching titration (PCB emission, excitation […] nm); also near-UV CD, thermal shift of nearly […] °C; parameters: gene cpcA; native C-PC purified from Spirulina biomass, (αβ)3 trimer / (αβ)6 hexamer; with C-phycocyanin beta subunit (cpcB)
Target sequence in this assay (P72509 whole entry): as above
Target sequence in this assay (P72508 whole entry): as the sequence (P72508 whole entry) above

[3] = molecular target: T1, C-phycocyanin (C-PC); test: fluorescence quenching titration (PCB emission, excitation […] nm); also UV-VIS, near-UV CD, thermal shift of nearly […] °C; parameters: gene cpcB; native C-PC purified from Spirulina biomass, (αβ)3 trimer / (αβ)6 hexamer; with C-phycocyanin alpha subunit (cpcA)
Target sequence in this assay (P72508 whole entry): as above
Target sequence in this assay (P72509 whole entry): as the sequence (P72509 whole entry) above

Work on `Oc1ccc(/C=C/c2cc(O)cc(O)c2)cc1` [resveratrol] yielded a Kd [1] of 4.55 µM.

`COC1=C(OC)C(=O)C(C/C=C(\C)CC/C=C(\C)CC/C=C(\C)CC/C=C(\C)CC/C=C(\C)CC/C=C(\C)CC/C=C(\C)CC/C=C(\C)CC/C=C(\C)CCC=C(C)C)=C(C)C1=O` [coenzyme Q10] showed a Kd [2] of 2.94 µM.

Compound `O=c1c(O)c(-c2ccc(O)c(O)c2)oc2cc(O)cc(O)c12` [quercetin] has a Kd [3] of 2.7 µM.
